According to US4960908A, “Isoflavone derivatives, salts thereof, and oncostatic and immunosuppressive agents” (Yamanouchi Pharmaceutical Co., Ltd., priority 1985, dated 1990):
≈ marks a conversion by molar mass, not a printed value. Where a name gives a salt, the structure may show the parent alone.

Tests used:
RSV-3Y1 cells = test: Inhibitory action against the growth of tumor cells (RSV-3Y1 cells); assay type: cell-based; conditions: Rattus norvegicus, live cells counted after 1, 2, 3 and 4 days using trypan blue, read-out: IC50, Inhibition against the growth of RSV-3Y1
Procedure: The inhibitory action of the compounds of this invention against the growth of tumor cells was examined by using cells of rats transformed by Rous sarcoma virus (RSV-3Y1 cells).
The inhibitory actions of the compounds of Examples 1 through 17 against the tyrosine-specific protein kinase activity and against the growth of RSV-3Y1 cells were measured according to the methods described earlier.

[1] = biological target: tyrosine-specific protein kinase derived from Rous sarcoma virus (src gene pp60^src) (Rous sarcoma virus (strain Schmidt-Ruppin A), UniProt P00524); test: Inhibitory action against tyrosine-specific protein kinase activity; assay type: biochemical
Procedure: The inhibitory action against tyrosine-specific protein kinase activity of the compounds of this invention was measured according to the method described below using tyrosine-specific protein kinase derived from Rous sarcoma virus (src gene pp60^src).
Measurement of tyrosine-specific protein kinase activity (src gene pp60^src derived from Rous sarcoma virus) (refer to M. S. Colet, R. L. Ericson: Proceeding of the National Academy of Sciences of U.S.A., 75, 2021-2024, 1978).
3Y1 cells (fibroblasts derived from fetal rat kidney) transformed by Rous sarcome virus (RSV) were cultured, the cultured cells were collected and washed, RIPA buffer solution [containing 0.5% NP40, 0.1% sodium deoxycholate, 50 mM Tris-HCl (pH 7.2), 1 mM phenylmethylsulfonyl fluoride (PMSF) and 0.15M NaCl] was added to the collected cells, the mixture was allowed to stand at 0° C. for 30 minutes to effect solubilization, and the resulting mixture was centrifuged (100,000× g, 20 minutes). To the supernatant thus collected, was added antiserum obtained from a rabbit cancered by inoculation of RSV, the mixture was incubated at 0° C. for 30 to 60 minutes to cause pp60^src to react with antibody, and the immune complex was isolated by mixing with protein A/Sepharose-4B (Pharmacia) and washed with RIPA buffer. The total complex thus obtained (pp60^src /antibody/protein A/Sepharose-4B) was treated in a solution containing 20 mM Pipes/NaOH (pH 7.2), 5 mM MgCl2, 1 mM DTT and 10 μM [γ-^32 p]ATP (2 mCi/mMol) at 30° C. for five minutes to effect protein kinase reaction, which was terminated by addition a terminating solution containing SDS followed by boiling for three minutes. The reaction mixture was subjected to electrophoresis on 8% SDS/polyacrylamide gel and then to autoradiography, and the radioactivity of cut-out pp60^src band was measured on a liquid scintillation counter, thus quantifying the protein kinase reaction and calculating IC50 value.

[2] = system: antibody-forming cells (ovine erythrocytes immunization); test: Immunosuppressive action: antibody-formation inhibition (hemolytic plaques, antibody-forming cells in the spleen); assay type: in vivo, male ddy mouse; conditions: abdominal injection, once a day over four days, mouse
Procedure: The spleen was taken out five days after immunization, and the number of antibody-formingcells contained in it was measured as follows according to the method of Cunningham [Cunningham A. J.: Nature, 207, 1106 (1965)]. The splenetic cells were suspended in Eagle's MEM (Nissui Pharmaceutical), ovine erythrocytes and guinea-pig complement were added to this suspension, the resulting mixture was put in a Cunningham chamber (with its both ends sealed with paraffin) and incubated at 37° C. for 90 minutes, and the number of hemolytic plaques (a) (the number of antibody-forming cells) was counted.
Similarly, the number of hemolytic plaques (b) was measured with a mouse not injected with the compound of this invention (control). The antibody-formation inhibition rate was calculated according to the following equation: [formula]

[3] = reported in J.A.C.S. (page 3447, 1951); cited from earlier work
[4] = 5 mg/Kg for each administration
[5] = 25 mg/Kg for each administration

Sequence of tyrosine-specific protein kinase derived from Rous sarcoma virus (src gene pp60^src) (P00524 2-526): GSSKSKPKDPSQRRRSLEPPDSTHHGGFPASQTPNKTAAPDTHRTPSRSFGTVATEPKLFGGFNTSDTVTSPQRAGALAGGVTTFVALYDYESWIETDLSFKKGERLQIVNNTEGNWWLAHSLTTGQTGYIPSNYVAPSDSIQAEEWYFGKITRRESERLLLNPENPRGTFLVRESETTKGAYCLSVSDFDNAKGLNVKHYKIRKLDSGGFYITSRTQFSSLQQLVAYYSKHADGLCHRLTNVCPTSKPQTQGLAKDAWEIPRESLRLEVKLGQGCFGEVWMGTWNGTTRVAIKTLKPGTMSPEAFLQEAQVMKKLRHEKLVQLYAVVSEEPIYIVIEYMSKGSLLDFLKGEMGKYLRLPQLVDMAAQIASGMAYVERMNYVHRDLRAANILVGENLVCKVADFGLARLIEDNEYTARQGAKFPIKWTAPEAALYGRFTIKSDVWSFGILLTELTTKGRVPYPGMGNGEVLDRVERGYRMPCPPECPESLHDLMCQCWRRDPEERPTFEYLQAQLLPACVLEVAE

SMILES	IC50 (RSV-3Y1 cells)	IC50 [1]	further results
COc1ccc(-c2c(CN(C)C)oc3cc(O)cc(O)c3c2=O)cc1 [Example 2, 2-(dimethylaminomethyl)-5,7-dihydroxy-4'-methoxyisoflavone hydrochloride]	18 µg/mL	> 293 µM	–
COC(=O)c1oc2cc(O)cc(O)c2c(=O)c1-c1ccc(O)cc1 [Example 15]	60 µg/mL (≈ 183 µM)	–	–
CSCc1oc2cc(O)cc(O)c2c(=O)c1-c1ccc(O)cc1 [Example 10, 4',5,7-trihydroxy-2-(methylthiomethyl)isoflavone]	20 µg/mL (≈ 60.5 µM)	–	–
O=c1c(-c2ccc(O)cc2)c(CSCC(O)CO)oc2cc(O)cc(O)c12 (stereo not drawn) [Example 13, 2-[[(2,3-Dihydroxypropyl)thio]methyl]-4', 5,7-trihydroxyisoflavone]	> 100 µg/mL	10.2 µM	Antibody-formation inhibition rate [2, 4]: 27.0%; Antibody-formation inhibition rate [2, 5]: 76.6%
O=c1c(-c2ccc(O)cc2)coc2cc(O)cc(O)c12 [genistein, 5,7,4'-trihydroxyisoflavone]	–	–	estrogenic action [3]: weak estrogenic action
NC(=O)c1oc2cc(O)cc(O)c2c(=O)c1-c1ccc(O)cc1 [Example 7, 4',5,7-trihydroxy-2-isoflavonecarboxamide]	> 100 µg/mL	–	–
CNC(=O)c1oc2cc(O)cc(O)c2c(=O)c1-c1ccc(O)cc1 [Example 8, 4',5,7-trihydroxy-N-methyl-2-isoflavonecarboxamide]	> 100 µg/mL	45.8 µM	–
CCOC(=O)C(=O)Oc1ccc(-c2c(C(=O)OCC)oc3cc(O)cc(O)c3c2=O)cc1 [Example 1, ethyl 4'-ethoxalyloxy-5,7-dihydroxy-2-isoflavonecarboxylate]	> 100 µg/mL	2.26 µM	Antibody-formation inhibition rate ([2]; 1 mg/Kg for each administration): 14.4%; Antibody-formation inhibition rate [2, 4]: 28.7%; Antibody-formation inhibition rate [2, 5]: 40.0%; Antibody-formation inhibition rate ([2]; 50 mg/Kg for each administration): 75.8%
COc1ccc(-c2c(CNCCO)oc3cc(O)cc(O)c3c2=O)cc1.Cl [Example 4, 5,7-Dihydroxy-2-[(2-hydroxyethylamino)methyl]-4'-methoxyisoflavone hydrochloride]	> 100 µg/mL	> 254 µM	–
CC(C)OC(=O)c1oc2cc(O)cc(O)c2c(=O)c1-c1ccc(O)cc1 [Example 16, isopropyl 4',5,7-trihydroxy-2-isoflavonecarboxylate]	25 µg/mL (≈ 70.2 µM)	–	–
O=c1c(-c2ccc(O)cc2)c(CN2CCCCC2)oc2cc(O)cc(O)c12 [Example 5, 4',5,7-trihydroxy-2-piperidinomethylisoflavone]	9.5 µg/mL (≈ 25.9 µM)	–	–
O=C(O)CCSCc1oc2cc(O)cc(O)c2c(=O)c1-c1ccc(O)cc1 [Example 14]	90 µg/mL (≈ 232 µM)	25.7 µM	–
O=C(NCCO)c1oc2cc(O)cc(O)c2c(=O)c1-c1ccc(O)cc1 [Example 9, 4',5,7-trihydroxy-N-(2-hydroxyethyl)-2-isoflavonecarboxamide]	> 100 µg/mL	42 µM	–
O=c1c(-c2ccc(O)cc2)c(CSC2=NCCS2)oc2cc(O)cc(O)c12 [Example 11]	20 µg/mL (≈ 49.8 µM)	–	–
O=c1c(-c2ccc(O)cc2)c(CNC2=NCCS2)oc2cc(O)cc(O)c12 [Example 6, 4',5,7-Trihydroxy-2-[(2-thiazolin-2-ylamino)methyl]isoflavone]	> 100 µg/mL	39 µM	–
COCCOC(=O)c1oc2cc(O)cc(O)c2c(=O)c1-c1ccc(O)cc1 [Example 17, Methoxyethyl 4',5,7-trihydroxy-2-isoflavonecarboxylate]	60 µg/mL (≈ 161 µM)	16.1 µM	–
CCOC(=O)CSCc1oc2cc(O)cc(O)c2c(=O)c1-c1ccc(O)cc1 [Example 12, Ethyl [[(4',5,7-trihydroxy-2-isoflavonyl)methyl]thio]acetate]	> 100 µg/mL	–	Antibody-formation inhibition rate [2, 4]: 25.3%; Antibody-formation inhibition rate [2, 5]: 50.0%
COc1ccc(-c2c(CNC3CCCCC3)oc3cc(O)cc(O)c3c2=O)cc1 [Example 3, 2-(Cyclohexylaminomethyl)-5,7-dihydroxy-4'-methoxyisoflavone hydrochloride]	16 µg/mL	> 253 µM	–
